#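 All cell lines were grown in 96-well plates and treated with compound for 48 hours. The concentration for 50% growth inhibition is given as GI50. TGI is the concentration that stops growth completely.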
# What was measured:
# Assay in all cases: NCI anticancer screen, dose series, 48 h
# [1] = test system: SN12C renal
# [2] = test system: SF-295 CNS
# [3] = test system: HS 578T breast
# [4] = test system: A549 NSCLC
# [5] = test system: EKVX NSCLC
# [6] = test system: HT29 colon
# [7] = test system: KM12 colon
# [8] = test system: M14 melanoma
# [9] = test system: TK-10 renal
# [10] = test system: MOLT-4 leukemia
Structure (SMILES),TGI [1],TGI [2],TGI [3],TGI [4],TGI [5],TGI [6],TGI [7],TGI [8],TGI [9],TGI [10],GI50 [1],GI50 [2],GI50 [3],GI50 [4],GI50 [5],GI50 [6],GI50 [7],GI50 [8],GI50 [9],GI50 [10]
Cc1c(NC2(C)C(=O)N(/N=C/c3ccccc3)N=C2c2ccccc2)n[nH]c1-c1ccccc1 (stereo not given),> 100 µM,> 100 µM,> 100 µM,> 100 µM,> 100 µM,> 100 µM,> 100 µM,> 100 µM,> 100 µM,> 100 µM,–,–,–,–,–,–,–,–,–,–
CC(=O)N1CCN(C23OC4(N5CCN(C(C)=O)CC5)C5C6CC(C7C6C4C72)C53)CC1 (stereo not given),> 100 µM,> 100 µM,> 100 µM,> 100 µM,> 100 µM,> 100 µM,> 100 µM,> 100 µM,> 100 µM,> 100 µM,–,–,–,–,–,–,–,–,–,–
O=C(NCc1ccc(Cl)cc1)c1cc2sccc2nc1C(F)(F)F,> 100 µM,> 100 µM,47.6 µM,> 100 µM,> 100 µM,> 100 µM,> 100 µM,> 100 µM,> 100 µM,> 100 µM,–,–,–,–,–,–,–,–,–,–
COc1cc(/C=C2/N=C(c3ccccc3)N(C3=NNC4(C(=O)N3)c3ccccc3-c3ccccc34)NC2=O)ccc1O,56.8 µg/mL,42.5 µg/mL,42.5 µg/mL,15 µg/mL,15 µg/mL,49.1 µg/mL,42.9 µg/mL,105 µg/mL,78.2 µg/mL,123 µg/mL,25.6 µg/mL,19.7 µg/mL,19.8 µg/mL,15 µg/mL,15 µg/mL,27.7 µg/mL,22.7 µg/mL,34.7 µg/mL,35.8 µg/mL,35.7 µg/mL
Oc1ccc(CCc2cc(O)cc(O)c2)cc1,> 100 µM,> 100 µM,> 100 µM,> 100 µM,> 100 µM,> 100 µM,> 100 µM,> 100 µM,> 100 µM,> 100 µM,–,–,–,–,–,–,–,–,–,–
CN(Cc1cnc2nc(N)nc(N)c2n1)c1ccc(C(=O)NC(CCC(=O)NC(P(=O)(O)O)P(=O)(O)O)C(=O)O)cc1 (stereo not given),> 100 µM,> 100 µM,> 100 µM,> 100 µM,> 100 µM,> 100 µM,> 100 µM,> 100 µM,> 100 µM,> 100 µM,–,–,–,–,–,–,–,–,–,–
CN(C)CCCOCCn1c2c(c3ccccc31)CCCC2,32.5 µM,40.1 µM,51.6 µM,31.8 µM,57.8 µM,28.5 µM,43.1 µM,32.1 µM,32.6 µM,30.6 µM,–,–,–,–,–,–,–,–,–,–
C/C(O)=C/c1nc2ccc([N+](=O)[O-])cc2nc1/C=C(/C)O,> 100 µM,> 100 µM,85.3 µM,> 100 µM,> 100 µM,> 100 µM,> 100 µM,> 100 µM,> 100 µM,72.2 µM,–,–,–,–,–,–,–,–,–,–
c1ccc2c(Cc3nnc4sc(SSc5nn6c(Cc7c[nH]c8ccccc78)nnc6s5)nn34)c[nH]c2c1,56.3 µM,44.1 µM,56.8 µM,88.4 µM,> 100 µM,44.4 µM,70.3 µM,37.2 µM,> 100 µM,70.6 µM,–,–,–,–,–,–,–,–,–,–
COc1cc(C2SCC(=O)N2c2ccc(Oc3ccc(Cl)cc3)c(Cl)c2)cc(OC)c1OC (stereo not given),56.2 µM,34.6 µM,40.7 µM,69.2 µM,56.2 µM,33.7 µM,46 µM,83.1 µM,33.9 µM,> 100 µM,–,–,–,–,–,–,–,–,–,–
Cc1ccc(-c2n[nH]c(=O)[nH]2)cc1[N+](=O)[O-],> 100 µM,> 100 µM,> 100 µM,> 100 µM,> 100 µM,> 100 µM,> 100 µM,> 100 µM,> 100 µM,> 100 µM,–,–,–,–,–,–,–,–,–,–
O=S1(=O)c2ccccc2NC(=S)CC1c1ccccc1 (stereo not given),> 100 µM,79.8 µM,> 100 µM,> 100 µM,> 100 µM,> 100 µM,> 100 µM,> 100 µM,> 100 µM,> 100 µM,–,–,–,–,–,–,–,–,–,–
CC(=O)c1cc2c(s1)C(=O)c1ccccc1C2=O,16.3 µM,8.99 µM,> 67.6 µM,14.6 µM,15.9 µM,21.4 µM,11.5 µM,10.8 µM,42.3 µM,8.67 µM,–,–,–,–,–,–,–,–,–,–
CC(C)(C)OC[C@H](O)CC#N,> 100 µM,> 100 µM,> 100 µM,> 100 µM,> 100 µM,> 100 µM,> 100 µM,> 100 µM,> 100 µM,> 100 µM,–,–,–,–,–,–,–,–,–,–
CC(=O)OCC=C(CCl)CCC(Br)C(C)(C)Br (mixture of isomers),> 10 µM,> 10 µM,> 10 µM,> 10 µM,> 10 µM,> 10 µM,> 10 µM,> 10 µM,> 10 µM,> 10 µM,–,–,–,–,–,–,–,–,–,–
O=C(CNc1ccc(Cl)cc1Cl)NC1C=Cc2ccc(S(=O)(=O)Nc3ccc(Cl)cc3Cl)cc2C1=O (stereo not given),> 100 µM,> 100 µM,> 100 µM,> 100 µM,> 100 µM,> 100 µM,> 100 µM,> 100 µM,> 100 µM,> 100 µM,–,–,–,–,–,–,–,–,–,–

Structure (SMILES),TGI [1],TGI [2],TGI [3],TGI [4],TGI [5],TGI [6],TGI [7],TGI [8],TGI [9],TGI [10],GI50 [1],GI50 [2],GI50 [3],GI50 [4],GI50 [5],GI50 [6],GI50 [7],GI50 [8],GI50 [9],GI50 [10]
COc1ccc(OC)c2c1C1CCC(=O)N1CN2C(C)=O (stereo not given),> 100 µM,> 100 µM,> 100 µM,> 100 µM,> 100 µM,> 100 µM,> 100 µM,> 100 µM,> 100 µM,> 100 µM,–,–,–,–,–,–,–,–,–,–
C=CC[C@@]1(C(=O)OC)[C@H](Sc2ccccc2)C1(C)C,76.8 µM,> 100 µM,> 100 µM,> 100 µM,> 100 µM,> 100 µM,> 100 µM,> 100 µM,> 100 µM,34.3 µM,–,–,–,–,–,–,–,–,–,–
CCOC(=O)C(CS)NC(=O)CCCCCCCC(=O)NC(CS)C(=O)OCC (stereo not given),> 100 µM,> 100 µM,> 100 µM,> 100 µM,> 100 µM,> 100 µM,> 100 µM,> 100 µM,> 100 µM,> 100 µM,–,–,–,–,–,–,–,–,–,–
O=C(NCCCNCCNC(=O)c1cc(-c2ccccc2)nc2ccccc12)c1cc(-c2ccccc2)nc2ccccc12,3.24 µM,3.19 µM,4.5 µM,3.13 µM,5.2 µM,2.91 µM,3.55 µM,3.95 µM,3.14 µM,4.31 µM,–,–,–,–,–,–,–,–,–,–
CSc1c(C#N)c2n(c3ccccc13)c1ccccc1[n+]2C,53.1 µM,> 100 µM,> 100 µM,81.8 µM,56.9 µM,46.2 µM,> 100 µM,> 100 µM,93.6 µM,38.6 µM,–,–,–,–,–,–,–,–,–,–
O=c1oc2ccc(Cl)cc2cc1-c1cn2cc(Cl)ccc2n1,> 100 µM,> 100 µM,> 68.5 µM,> 87.8 µM,> 100 µM,> 58.8 µM,> 58.6 µM,> 100 µM,> 100 µM,> 100 µM,–,–,–,–,–,–,–,–,–,–
CC1(C)Oc2ccc(NC(=O)CCC(N)C(=O)O)cc2O1 (stereo not given),> 100 µM,> 100 µM,> 100 µM,> 100 µM,> 100 µM,> 100 µM,> 100 µM,> 100 µM,> 100 µM,> 100 µM,–,–,–,–,–,–,–,–,–,–
COC(=O)C1(Cc2ccccc2)Cc2ccccc2C1,> 100 µM,99.2 µM,> 100 µM,> 100 µM,89.4 µM,41.7 µM,> 100 µM,34.8 µM,> 100 µM,41.8 µM,–,–,–,–,–,–,–,–,–,–
CC(C)CNC(=O)Cn1c(-c2ccccc2)cc2ccccc21,> 100 µM,> 100 µM,> 100 µM,> 100 µM,> 100 µM,> 100 µM,> 100 µM,> 100 µM,> 100 µM,> 100 µM,–,–,–,–,–,–,–,–,–,–
CC(C)OP(=O)(OC(C)C)C(C(C)C)N(C)/C(F)=N/C(F)(F)F (stereo not given),> 100 µM,> 100 µM,> 100 µM,> 100 µM,> 100 µM,> 100 µM,> 100 µM,> 100 µM,> 100 µM,> 100 µM,–,–,–,–,–,–,–,–,–,–
C[n+]1c2ccccc2c(C(=O)Nc2ccc(S(=O)(=O)N=C(N)N)cc2)c2ccccc21,> 100 µM,> 100 µM,> 100 µM,> 100 µM,> 100 µM,> 100 µM,> 100 µM,> 100 µM,> 100 µM,> 100 µM,–,–,–,–,–,–,–,–,–,–
CSc1cc(N)ccc1N=Nc1ccc(S(N)(=O)=O)cc1,> 100 µM,56.6 µM,73.9 µM,71.2 µM,> 100 µM,> 100 µM,92.2 µM,> 100 µM,72 µM,> 100 µM,–,–,–,–,–,–,–,–,–,–
C[N+](C)(C)c1ncnc2c1ncn2C1CCCCO1 (stereo not given),> 100 µM,> 100 µM,> 100 µM,> 100 µM,> 100 µM,> 100 µM,> 100 µM,> 100 µM,> 100 µM,> 100 µM,–,–,–,–,–,–,–,–,–,–
CC1(COS(=O)(=O)OCC2(C)COS(=O)(=O)OC2)COS(=O)(=O)OC1,> 32.1 µM,> 100 µM,> 100 µM,> 100 µM,> 100 µM,> 69.6 µM,> 77.3 µM,> 100 µM,> 100 µM,> 81.5 µM,–,–,–,–,–,–,–,–,–,–
O=c1[nH]c(Nc2cccc(Cl)c2)nc2nc[nH]c12,> 100 µM,> 100 µM,> 100 µM,> 100 µM,> 100 µM,> 100 µM,> 100 µM,> 100 µM,> 100 µM,> 100 µM,–,–,–,–,–,–,–,–,–,–
c1ccc2c(c1)nc1n2CCSC1,> 100 µM,> 100 µM,> 100 µM,> 100 µM,> 100 µM,> 100 µM,> 100 µM,> 100 µM,> 100 µM,> 100 µM,–,–,–,–,–,–,–,–,–,–
